Here are results for 27 compounds from US10441588B2, “Methods and compositions for treating bacterial infection” (Curators of the University of Missouri, priority 2012, dated 2019).

For test [1], the system named is S. aureus biofilm. The experiment in a line: S. aureus biofilm inhibition, optical density, test/control. To be noted: Staphylococcus aureus, growth of biofilm test/control by optical density. Format: cell-based, Staphylococcus aureus.
Test [2] concerns S. aureus. The experiment in a line: S. aureus growth inhibition, optical density, test/control. In kind it is cell-based, Staphylococcus aureus. Particulars: Staphylococcus aureus, growth of bacteria test/control by optical density.
In test [3] the test system is S. epidermis biofilm. The test can be described thus: S. epidermis biofilm inhibition, optical density, test/control. Particulars: Staphylococcus epidermidis, growth of biofilm test/control by optical density.

For `C=CCn1c(SCc2ccc(NC(C)=O)cc2)nc2c(c1=O)C1(CCCCC1)Cc1ccccc1-2` [CCG-102491], the figures for the activity at 100 µM in test [1] and in test [2] were 75% and 84.8%, respectively.

As for `C=CCn1c(SCCOC)nc2c(c1=O)CC(C)c1ccccc1-2` (stereo not shown) [CCG-203574], the activity at 100 µM in test [1] stood at 46.5%; in test [2], 73.8%.

`C=CCn1c(SCCOC)nc2c(c1=O)C1(CCCCC1)Cc1ccccc1-2` [CCG-102493]: the activity at 100 µM came to 66% in test [1] and 72.1% in test [2].

Regarding `C=CCn1c(SCCOC)nc2c(c1=O)C1(CCOCC1)Cc1ccccc1-2` [CCG-205453, 3-Allyl-2-((2-methoxyethyl)thio)-2′,3′,5′,6′-tetrahydro-3H-spiro[benzo[h]quinazoline-5,4′-pyran]-4(6H)-one], the activity at 100 µM in test [1] was determined as 79.6%; in test [2] it was 102%.

As for `C=CCn1c(SCc2cccc(OC)c2)nc2c(c1=O)C1(CCCCC1)Cc1ccccc1-2` [CCG-102485], the figures for the activity at 100 µM in test [1] and in test [2] were 49.5% and 114%, respectively.

Regarding `C=CCn1c(SCCOC)nc2c(c1=O)C(C)(C)Cc1cc(C(=O)OC)ccc1-2` [CCG-205435], the activity at 10 µM in test [1] stood at 29.3%. Besides, the activity at 100 µM in test [2] is 126%.

Regarding `C=CCn1c(SCC(F)(F)F)nc2c(c1=O)C(C)(C)Cc1ccc(OC)cc1-2` [CCG-206352], in test [1], the activity at 10 µM was found to be 60.4% and the activity at 100 µM worked out at 47%. In addition, the activity at 100 µM in test [2] was 101%.

In the case of `C=CCOc1nc(SCCOC)nc(-c2ccccc2)c1C` [CCG-205382, 4-(Allyloxy)-2-((2-methoxyethyl)thio)-5-methyl-6-phenylpyrimidine], the activity at 100 µM in test [1] amounted to 55.2%; in test [2], 93.4%.

Consider `C#CCSc1nc2c(c(=O)n1CC=C)C(C)(C)Cc1cc(C(=O)c3ccccc3)ccc1-2` [CCG-204080, 3-allyl-8-benzoyl-5,5-dimethyl-2-(prop-2-yn-1-ylthio)-5,6-dihydrobenzo[h]quinazolin-4(3H)-one], for which the results for the activity at 100 µM in test [1] and in test [2] were 73.4% and 110%, respectively.

As to `COCCSc1nc2c(c(=O)n1CC1CC1)C(C)(C)Cc1ccccc1-2` [CCG-205444, 3-(Cyclopropylmethyl)-2-((2-methoxyethyl)thio)-5,5-dimethyl-5,6-dihydrobenzo[h]quinazolin-4(3H)-one], the results for the activity at 100 µM in test [1] and in test [2] were 66.2% and 104%, respectively.

As to `C=CCn1c(SCC)nc2c(c1=O)C(C)(C)Cc1cc(OC(C)C)ccc1-2` [CCG-205480], in test [1], the activity at 10 µM was found to be 52.3%. In addition, in test [2], the activity at 100 µM came out at 115%.

Regarding `COCCSc1nc2c(c(=O)n1Cc1ccc(OC)cc1)C(C)(C)Cc1ccccc1-2` [CCG-204036, 3-(4-Methoxybenzyl)-2-((2-methoxyethyl)thio)-5,5-dimethyl-5,6-dihydrobenzo[h]quin-azolin-4(3H)-one], the activity at 100 µM came out at 76.5% in test [1] and 112% in test [2].

Take `COCCSc1nc2c(c(=O)n1Cc1ccc(-c3noc(C)n3)cc1)C(C)(C)Cc1ccccc1-2` [CCG-205387, 2-((2-Methoxyethyl)thio)-5,5-dimethyl-3-(4-(5-methyl-1,2,4-oxadiazol-3-yl)benzyl)-5,6-dihydrobenzo[h]quinazolin-4(3H)-one]: the activity at 100 µM in test [1] was 72.3%; in test [2], 115%.

As to `C=CCn1c(SCc2ccccn2)nc2c(c1=O)C(C)(C)Cc1ccccc1-2` [CCG-203039], the activity at 100 µM in test [1] was found to be 71%; in test [2] it was 95.9%.

Regarding `C=CCn1c(OCC)nc2c(c1=O)C(C)(C)Cc1ccccc1-2` [CCG-203803], the activity at 100 µM worked out at 76.8% in test [1] and 81.9% in test [2].

Take `C=CCn1c(SCC)nc2c(c1=O)C(C)(C)Cc1cc(OCC#N)ccc1-2` [CCG-206178]: the activity at 10 µM in test [1] came out at 56.5%. Also, the activity at 100 µM in test [2] came to 104%.

For the compound `COCCSc1nc2c(c(=O)n1CC1OCCO1)C(C)(C)Cc1ccccc1-2` [CCG-204029, 3-((1,3-Dioxolan-2-yl)methyl)-2-((2-methoxyethyl)thio)-5,5-dimethyl-5,6-dihydrobenzo[h]-quinazolin-4(3H)-one], the activity at 100 µM in test [1] was determined as 63.6%; in test [2], 94.3%.

Consider `C=CCn1c(SCCOC)nc2c(c1=O)C1(CCN(C(=O)c3ccc(Cl)cc3)CC1)Cc1ccccc1-2` [CCG-206235, 3-Allyl-1′-(4-chlorobenzoyl)-2-((2-methoxyethyl)thio)-3H-spiro[benzo[h]quinazoline-5,4′-piperidin]-4(6H)-one], for which the activity at 100 µM in test [1] was 77.6%; in test [2], 106%.

Regarding `COCCSc1nc(OCC2CC2)c2c(n1)-c1ccccc1CC2(C)C` [CCG-205445, 4-(Cyclopropylmethoxy)-2-((2-methoxyethyl)thio)-5,5-dimethyl-5,6-dihydrobenzo[h]quin-azoline], the activity at 100 µM in test [1] is 71.1%; in test [2], 107%.

As to `COCCSc1nc2c(c(=O)n1CCOc1ccc(F)cc1)C(C)(C)Cc1ccccc1-2` [CCG-204027, 3-(2-(4-Fluorophenoxy)ethyl)-2-((2-methoxyethyl)thio)-5,5-dimethyl-5,6-dihydrobenzo-[h]quinazolin-4(3H)-one], the activity at 100 µM was 74.8% in test [1] and 108% in test [2].

Consider `C=CCn1c(SCC)nc2c(c1=O)C(C)(C)Cc1cc(OCC(C)C)ccc1-2` [CCG-205426, 3-allyl-2-(ethylthio)-8-isobutoxy-5,5-dimethyl-5,6-dihydrobenzo[h]quinazolin-4(3H)-one], for which the results for the activity at 100 µM in test [1] and in test [2] were 77.8% and 114%, respectively.

In the case of `C=CCn1c(SCCOC)nc2c(c1=O)C1(CCN(C(=O)Nc3ccccc3)CC1)Cc1cc(OC)ccc1-2` [CCG-211971, 3-allyl-8-methoxy-2-((2-methoxyethyl)thio)-4-oxo-N-phenyl-4,6-dihydro-3H-spiro[benzo[h]quinazoline-5,4′-piperidine]-1′-carboxamide], the activity at 5 µM in test [3] (read-out: S. epidermis Biofilm inhibition 5 μM vs. (−) Control, 5 μM) is 125%. Besides, the activity at 50 µM in test [3] (read-out: S. epidermis Biofilm inhibition 50 μM vs. (−) Control, 50 μM) was determined as 69%.

In the case of `CCn1c(SCCOC)nc2c(c1=O)C(C)(C)Cc1ccccc1-2` [CCG-203598], the activity at 100 µM in test [1] was 61%; in test [2] it was 85.5%.

As for `CCSc1nc(OCC(F)(F)F)c2c(n1)-c1cc(OC)ccc1CC2(C)C` [CCG-206356], the activity at 100 µM was determined as 59.1% in test [1] and 110% in test [2].

Take `C=CCn1c(SCCOC)nc2c(c1=O)C1(CCN(C(C)=O)CC1)Cc1ccccc1-2` [CCG-206230, 1′-Acetyl-3-allyl-2-((2-methoxyethyl)thio)-3H-spiro[benzo[h]quinazoline-5,4′-piperidin]-4(6H)-one]: the activity at 10 µM in test [1] turned out to be 85.5%. Besides, the activity at 100 µM in test [2] worked out at 97%.

As to `C=CCn1c(SCCOC)nc2c(c1=O)C(C)(C)Cc1cnccc1-2` [CCG-204041, 3-allyl-2-((2-methoxyethyl)thio)-5,5-dimethyl-5,6-dihydropyrido[3,4-h]quinazolin-4(3H)-one], the activity at 100 µM in test [1] turned out to be 75.7%; in test [2], 90.2%.

With `COCCSc1nc(OCC2OCCO2)c2c(n1)-c1ccccc1CC2(C)C` [CCG-203627], the activity at 100 µM in test [1] is 49.6%; in test [2] it was 80.6%.
